The experiment has as its target TPK enzyme (Homo sapiens, UniProt Q9H3S4). The experiment can be described thus: TPK enzyme activity test (TDP formation from thiamine and ATP, HPLC detection). The format is biochemical. On the procedure: The purpose of this example was to test the promoting effect of compounds on TPK enzyme activity and evaluate the in vitro activity of the compounds based on EC50 and Emax.
1.1) The constant-temperature water-bath shaker was pre-heated half an hour in advance at a pre-heating temperature of 37° C.
1.2) The stock solution of the compound to be tested was taken out, allowed to thaw at room temperature, and then diluted to the required concentration.
1.3) The required reagents were placed on ice to thaw.
2.1) For each reaction system, TPK enzyme solution, Tris-HCl buffer solution, and ATP solution were added. The concentration of ATP used was 1-500 mM. The above three solutions were formulated into a homogeneous mixture.
2.2) The mixture of the above three solutions was dispensed into centrifuge tubes. Then, the compound at the required concentration was added to each centrifuge tube. Finally, thiamine solution (1-100 μM) was added. After the addition of the above system was completed, the centrifuge tubes were tightly capped, inserted into a floating board, and placed in the constant-temperature water-bath shaker that had been pre-heated to 37° C. for incubation for 0.5-2.0 hours.
2.3) After the incubation was completed, perchloric acid stop solution was added and mixed well. Samples were taken into 1.5 mL centrifuge tubes and stored at −20° C.
3.1) The samples stored at −20° C. were taken out, thawed at room temperature, and then subjected to derivatization treatment. The samples were placed in centrifuge tubes, a potassium ferricyanide derivatization reagent was added, and finally phosphoric acid stop solution was added to stop the reaction.
3.2) The derivatized samples were placed in sample vials for liquid chromatography analysis, and the contents of TDP/thiamine were detected by high performance liquid chromatography. TKP enzyme activity=TDP (nM)/mg protein/min.
The effects of the compounds of the present invention on TPK enzyme activity at different concentrations were determined according to the above procedures.

The mark [1] stands for this setting: promoting effect on TPK enzyme activity.
The mark [2] stands for this setting: promoting effect on TPK enzyme activity, calculated with the effect of DMSO on TPK enzyme activity as 100%, read-out: Emax.

Where two headings read alike, the source gives them in different places.

TPK enzyme, sequence (Q9H3S4 whole entry): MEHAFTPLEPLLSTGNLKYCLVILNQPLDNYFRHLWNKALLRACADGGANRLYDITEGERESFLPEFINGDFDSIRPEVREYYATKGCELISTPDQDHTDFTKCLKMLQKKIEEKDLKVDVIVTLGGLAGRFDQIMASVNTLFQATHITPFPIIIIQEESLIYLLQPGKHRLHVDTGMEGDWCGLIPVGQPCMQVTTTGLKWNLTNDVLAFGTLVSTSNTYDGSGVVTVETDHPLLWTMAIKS

Take `O=C1CCc2ccc(OC#CCCN3CCN(c4cccc(Cl)c4Cl)CC3)cc2N1` [Compound 1, 7-((4-(4-(2,3-dichlorophenyl)piperazin-1-yl)but-1-yn-1-yl)oxy)-3,4-dihydroquinolin-2(1H)-one]: a half-maximal response under setting [1] (EC50) required 1160 nM. The Emax under setting [2] was 183%.
Under setting [1], `O=C1CCc2ccc(OCCCCN3CCN(c4cccc(Cl)c4Cl)CC3)cc2N1` [Compound 2] displayed an EC50 of 460 nM. Moreover, the Emax under setting [2] is 155%.
Consider `O=C1CCc2ccc(OCCCCCCN3CCN(c4cccc(Cl)c4Cl)CC3)cc2N1` [Compound 3, 7-((6-(4-(2,3-dichlorophenyl)piperazin-1-yl)hexyl)oxy)-3,4-dihydroquinolin-2(1H)-one], for which, under setting [2], the Emax is 205%.
Compound `O=C1CCc2ccc(OCCCCCN3CCN(c4cccc(Cl)c4Cl)CC3)cc2N1` [Compound 4, 7-((5-(4-(2,3-dichlorophenyl)piperazin-1-yl)pentyl)oxy)-3,4-dihydroquinolin-2(1H)-one] came in with an EC50 under setting [1] of 1040 nM. Under setting [2], the Emax was 194%.
The matching figures for `O=C1CCc2ccc(OCCCN3CCN(c4cccc(Cl)c4Cl)CC3)cc2N1` [Compound 5]: 1200 nM and 184%.
On to `O=C1CCc2ccc(OCCCCN3CCN(c4cccc(C(F)(F)F)c4)CC3)cc2N1` [Compound 6, 7-(4-(4-(3-(trifluoromethyl)phenyl)piperazin-1-yl)butoxy)-3,4-dihydroquinolin-2(1H)-one], for which, under setting [1], the concentration giving a half-maximal response (EC50) turned out to be 1270 nM. Moreover, the Emax under setting [2] is 215%.
With `O=C1CCc2ccc(OCCCCCN3CCN(c4cccc(C(F)(F)F)c4)CC3)cc2N1` [Compound 7, 7-((5-(4-(3-(trifluoromethyl)phenyl)piperazin-1-yl)pentyl)oxy)-3,4-dihydroquinolin-2(1H)-one], under setting [1], it took 1180 nM to reach a half-maximal effect (EC50). The Emax under setting [2] was 224%.
With `O=c1ccc2ccc(OCCCCN3CCN(c4cccc(Cl)c4Cl)CC3)cc2[nH]1` [Compound 10, 7-(4-(4-(2,3-dichlorophenyl)piperazin-1-yl)butoxy)quinolin-2(1H)-one], under setting [1], the 50% effective concentration (EC50) turned out to be 130 nM. The Emax under setting [2] is 183%.
Under setting [1], `O=C1CCc2ccc(OCCCCN3CCC(c4cccc(Cl)c4Cl)CC3)cc2N1` [Compound 19] gave an EC50 of 5010 nM. In addition, under setting [2], the Emax is 196%.
On to `O=C1CCc2ccc(OCC(=O)NC3CCC(c4cccc(Cl)c4Cl)CC3)cc2N1` (centres unmarked) [Compound 21, N-(4-(2,3-dichlorophenyl)cyclohexyl)-2-((2-oxo-1,2,3,4-tetrahydroquinolin-7-yl)oxy)acetamide], for which, under setting [1], the EC50 was 1060 nM. Besides, the Emax under setting [2] is 166%.
Turning to `O=C1NCCc2ccc(OCCCCN3CCN(c4cccc(Cl)c4Cl)CC3)cc21` [Compound 22], under setting [1], the EC50 turned out to be 1190 nM. Also, under setting [2], the Emax is 167%.
The compound `O=C1NCCc2ccc(OCCCCCN3CCN(c4cccc(Cl)c4Cl)CC3)cc21` [Compound 23, 7-((5-(4-(2,3-dichlorophenyl)piperazin-1-yl)pentyl)oxy)-3,4-dihydroisoquinolin-1(2H)-one] displayed an EC50 under setting [1] of 1010 nM. Besides, the Emax under setting [2] is 226%.
As for `O=C1Cc2ccc(OCCCCN3CCN(c4cccc(Cl)c4Cl)CC3)cc2N1` [Compound 24, 6-(4-(4-(2,3-dichlorophenyl)piperazin-1-yl)butoxy)indolin-2-one], under setting [2], the Emax is 189%.
`O=C1Cc2ccc(OCCCCN3CCN(c4cccc(C(F)(F)F)c4)CC3)cc2N1` [Compound 25, 6-(4-(4-(3-(trifluoromethyl)phenyl)piperazin-1-yl)butoxy)indolin-2-one] showed an EC50 under setting [1] of 754 nM. Further, the Emax under setting [2] was 138%.
For the compound `O=C1COc2ccc(OCCCCN3CCN(c4cccc(Cl)c4Cl)CC3)cc2N1` [Compound 26], under setting [1], the midpoint of the response, the EC50, lay at 1220 nM. Moreover, under setting [2], the Emax is 190%.
Compound `Clc1cccc(N2CCN(CCCOc3ccc4ncsc4c3)CC2)c1Cl` [Compound 28, 6-(3-(4-(2,3-dichlorophenyl)piperazin-1-yl)propoxy)benzo[d]thiazole] had an EC50 under setting [1] of 1540 nM. Also, the Emax under setting [2] was 185%.
Turning to `Clc1cccc(N2CCN(CCCCOc3ccc4ncsc4c3)CC2)c1Cl` [Compound 29, 6-(4-(4-(2,3-dichlorophenyl)piperazin-1-yl)butoxy)benzo[d]thiazole], the midpoint of the response under setting [1], the EC50, lay at 2280 nM. Also, the Emax under setting [2] is 191%.
`CC1(C)CCC(C)(C)c2cc(NC(=O)C=CC(=O)N3CCN(c4cccc(Cl)c4Cl)CC3)ccc21` [Compound 30, 4-(4-(2,3-dichlorophenyl)piperazin-1-yl)-4-oxo-N-(5,5,8,8-tetramethyl-5,6,7,8-tetrahydronaphthalen-2-yl)but-2-enamide]: the Emax under setting [2] is 132%.
As for `CC1(C)CCC(C)(C)c2cc(NC(=O)CCC(=O)N3CCN(c4cccc(Cl)c4Cl)CC3)ccc21` [Compound 31, 4-(4-(2,3-dichlorophenyl)piperazin-1-yl)-4-oxo-N-(5,5,8,8-tetramethyl-5,6,7,8-tetrahydronaphthalen-2-yl)butanamide], under setting [2], the Emax was 124%.
`O=C1CCc2ccc(OCCN3CCN(c4nc5ccccc5s4)CC3)cc2N1` [Compound 34, 7-(2-(4-(benzo[d]thiazol-2-yl)piperazin-1-yl)ethoxy)-3,4-dihydroquinolin-2(1H)-one] showed an EC50 under setting [1] of 1300 nM. For the same compound, the Emax under setting [2] is 189%.
The matching figures for `O=c1ccc2ccc(OCCN3CCN(c4nc5ccccc5s4)CC3)cc2[nH]1` [Compound 35, 7-(2-(4-(benzothiazol-2-yl)piperazin-1-yl)ethoxy)quinolin-2(1H)-one]: 1370 nM and 163%.
Under setting [1], `O=C1CCc2ccc(OCCCCN3CCN(c4nc5ccccc5s4)CC3)cc2N1` [Compound 36, 7-(4-(4-(benzo[d]thiazol-2-yl)piperazin-1-yl)butoxy)-3,4-dihydroquinolin-2(1H)-one] returned an EC50 of 1320 nM. Besides, under setting [2], the Emax is 139%.
Turning to `O=c1ccc2ccc(OCCCCN3CCN(c4nc5ccccc5s4)CC3)cc2[nH]1` [Compound 37, 7-(4-(4-(benzo[d]thiazol-2-yl)piperazin-1-yl)butoxy)quinolin-2(1H)-one], the EC50 under setting [1] stood at 1170 nM. In addition, under setting [2], the Emax is 224%.
For `O=C1CCc2ccc(OCCCN3CCN(c4nc5ccccc5s4)CC3)cc2N1` [Compound 38, 7-(3-(4-(benzo[d]thiazol-2-yl)piperazin-1-yl)propoxy)-3,4-dihydroquinolin-2(1H)-one], a half-maximal effect under setting [1] (EC50) was put at 1180 nM. Also, under setting [2], the Emax was 157%.
Consider `Cc1cc2c(s1)Nc1ccccc1N=C2N1CCN(CCCOc2ccc3c(c2)NC(=O)CC3)CC1` [Compound 40, 7-(3-(4-(2-methyl-10H-benzo[b]thieno[2,3-e][1,4]diazepin-4-yl)piperazin-1-yl)propoxy)-3,4-dihydroquinolin-2(1H)-one], for which the Emax under setting [2] is 122%.
Turning to `Cc1cc2c(s1)Nc1ccccc1N=C2N1CCN(CCCCOc2ccc3c(c2)NC(=O)CC3)CC1` [Compound 42, 7-(4-(4-(2-methyl-10H-benzo[b]thieno[2,3-e][1,4]diazepin-4-yl)piperazin-1-yl)butoxy)-3,4-dihydroquinolin-2(1H)-one], under setting [1], the midpoint of the response, the EC50, lay at 1000 nM. Moreover, the maximum response (Emax) under setting [2] was 170%.
Turning to `O=C1Cc2ccc(OCCCCN3CCN(c4nc5ccccc5s4)CC3)cc2N1` [Compound 44, 6-(4-(4-(benzo[d]thiazol-2-yl)piperazin-1-yl)butoxy)indolin-2-one], a half-maximal response under setting [1] (EC50) required 1140 nM. Moreover, the Emax under setting [2] was 235%.
For `Cc1cccc(NC(=O)CSCC(=O)N2CCN(c3cc(C(F)(F)F)cc(C(F)(F)F)c3)CC2)c1` [Compound 45, 2-((2-(4-(3,5-bis(trifluoromethyl)phenyl)piperazin-1-yl)-2-oxoethyl)thio)-N-(m-tolyl)acetamide] the same measures were 1070 nM and 152%.
The matching figures for `Cc1cccc(NC(=O)CSCC(=O)N2CCN(c3cccc(Cl)c3Cl)CC2)c1` [Compound 46]: 1310 nM and 149%.
The compound `COc1ccc(NC(=O)CN2CCN(c3cccc(Cl)c3Cl)CC2)cc1N` [Compound 47, N-(3-amino-4-methoxyphenyl)-2-(4-(2,3-dichlorophenyl)piperazin-1-yl)acetamide] displayed an EC50 under setting [1] of 4650 nM. Also, the Emax under setting [2] is 199%.
`COc1ccc(NC(=O)CN2CCN(c3cccc(Cl)c3Cl)CC2)cc1N(C)C` [Compound 48, 2-(4-(2,3-dichlorophenyl)piperazin-1-yl)-N-(3-(dimethylamino)-4-methoxyphenyl)acetamide] displayed an EC50 under setting [1] of 3800 nM. In addition, the Emax under setting [2] is 156%.
On to `CNc1cc(NC(=O)CCN2CCN(c3cccc(Cl)c3Cl)CC2)ccc1OC` [Compound 50, 3-(4-(2,3-dichlorophenyl)piperazin-1-yl)-N-(4-methoxy-3-(methylamino)phenyl)propanamide], for which, under setting [2], the maximal effect (Emax) is 128%.
Take `O=C(NCCCCN1CCN(c2cc(C(F)(F)F)cc(C(F)(F)F)c2)CC1)c1ccc(Cl)cc1` [Compound 53, N-(4-(4-(3,5-bis(trifluoromethyl)phenyl)piperazin-1-yl)butyl)-4-chlorobenzamide]: the Emax worked out at 133%.

The values are drawn from US20260076975A1, “TPK AGONIST AND METHOD FOR USING SAME TO TREAT NEURODEGENERATIVE DISEASES” (SHANGHAI RAISING PHARMACEUTICAL CO., LTD., priority 2022, published 2026).
